Values of other authors, collected in patent US20200206184A1, “PHARMACEUTICAL COMPOSITIONS FOR THE TREATMENT OF DISEASE AND/OR SYMPTOMS IN ARTHRITIS” (priority 2004, published 2020).

Assays:
[1] = tested on: TNF-α
[2] = tested on: PBQ-induced writhing in mice; conditions: ranking among cannabinoids
[3] = tested on: collagen induced arthritis model in mice
[4] = tested on: nitric oxide
[5] = tested on: patient with Mediterranean fever; conditions: 50 mg of THC

Compound | TNF-α production [1] | Inhibition of PBQ-induced writhing ([2]; mice, oral administration) | Arthritis in collagen induced arthritis model [3] | Nitric oxide production [4] | Reducing analgesia and inflammation [2] | Amount of analgesia that the patient required [5]
C=C(C)[C@@H]1CCC(C)=C[C@H]1c1c(O)cc(CCCCC)cc1O [CBD, cannabidiol] | inhibition | most effective | suppress arthritis in a dose dependant manner | inhibition | – | –
CCCCCc1cc(O)c2c(c1)OC(C)(C)c1ccc(C)cc1-2 [CBN] | – | – | – | – | least effective | –
CCCCCc1cc(O)c2c(c1)OC(C)(C)[C@@H]1CCC(C)=C[C@@H]21 [THC, delta-9-tetrahydrocannabinol] | – | – | – | – | least effective | highly significant reduction
